Data set [1] deals with lipid peroxidation induced in brain homogenates. As to the kind of experiment: Inhibition of FeSO4-induced lipid peroxidation in brain homogenates. The data set is classed as biochemical, Wistar rats. From the text: I.2.3 Inhibitory Activity of Lipid Peroxide in Nitro (Prasanth et al., 2000)
PRINCIPLE: Lipid peroxidation refers to the oxidative degradation of lipids which provoke a continuous increase in the permeability of cell membranes, inducing an irreversible alteration of the functional properties of the cell which could eventually lead to cytolysis. It is a radical chain reaction in which a free radical cleaves a hydrogen atom from membrane lipids in order to form a conjugated diene radical, which is oxidized to a peroxyl that in turn generates other radical reactions leading to the formation of terminal products such as MDA. Iron can stimulate lipid peroxidation either by Fenton reaction or by acceleration of peroxidation through the decomposition of lipid hydroperoxides into peroxyl or alkoxyl radicals; themselves capable of cleaving a hydrogen and perpetrating lipid peroxidation. The MDA from this reaction reacts with TBA to give pink colored chromophores which absorb at 532 nm. […]
The lipid peroxidation test was conducted as follows: 300 μL of plant extract at different concentrations and distilled water (control) were added to 500 μL of each homogenate. […] The absorbance was read at 532 nm. […] The IC50 were determined by extrapolating after drawing curves of lipid peroxidation percentage inhibition against the concentrations of plant extracts.

Data set [2] has as its system Aluminum chloride induced neurotoxicity in Wistar rats. As to the kind of experiment: Aluminum chloride treated rats: plasma creatinine, renal toxicity. In kind it is in vivo. As to the method:
(§1) [formula] I.3. Evaluation of Neuro-Protective Effects of the Hydro-Ethanolic Extract of B. toxisperma Against Aluminum Chloride Induced Neurotoxicity (Animal Model of Neurotoxicity)
(§2) Twenty albinos Wistar rats weighing between 230-250 g were used for this experiment in which the treatment lasted 3 days. The experimentation was conducted in the animal house of the Laboratory of Nutrition and Nutritional Biochemistry of the department of Biochemistry (Faculty of Science, University of Yaounde I). Animals were fed with standard feed and drinking water ad libitum.
Rats were divided into 5 groups of 4 rats each. A unique dose of 32.5 mg/kg BW of aluminum trichloride (AlCl3) was administered by intra peritoneal (i.p) route. 24 hours later, different doses of plant extract and vitamin E (reference) were administered by oral route, using a gastro-oesophagian probe once a day for 3 days.
24 hours after the last administration, animals were sacrificed under mild anesthesia in Ether vapor following a 12 hours fasting. […]
PROTOCOL: 1 mL of working solution (annex 3f) was placed into test tubes and 0.1 mL of plasma and caliber added respectively to assay and blank tubes. Tubes were agitated and their optical densities read 520 nm against a blank; within the 20 seconds that followed the stabilization of the mixture. […] The concentration of creatinine was determined from the following equation: […]

The test system is the same in data set [3]. As to the kind of experiment: Aluminum chloride induced neurotoxicity in rats: MDA in brain. The data set is classed as in vivo. How it is done: as §1, §2
Rats were divided into 5 groups of 4 rats each. A unique dose of 32.5 mg/kg BW of aluminum trichloride (AlCl3) was administered by intra peritoneal (i.p) route. […]
PROTOCOL: 100 μL of homogenate and 400 μL of TBA reagent (annex 3b) were introduced into glass test tubes (blank and assay) which were tightly corked. […] The tubes were later opened for any gas to evaporate before centrifugation for 5 minutes at 1500 revs/minute and the absorbance of the liquid phase was read at 532 nm against a blank which contained 400 μL of reagent solution and 100 μL of NaCl 0.9% incubated in similar conditions. The concentration of MDA was determined using it molar extinction coefficient (ε=1.53×10^5 M^−1·cm^−1) and the following formula.

For data set [4] the test system is unchanged. As to the kind of experiment: Aluminum chloride induced neurotoxicity in rats: thiol proteins in brain. In kind it is in vivo. The note with it: brain of rats; AlCl3 32.5 mg/kg i.p.; Vit E 100 mg/kg BW/day (VE100). As to the method:
as §1, §2
Rats were divided into 5 groups of 4 rats each. […]
PROTOCOL: The assay tubes contained 100 μL of homogenate or plasma or ovalbumin (caliber) and 3 mL of Biuret's reagent (annex 3c). […] The optical densities were read at 540 nm against a blank which contained 3 mL of reagent solution and 100 μL of NaCl 0.9% incubated under similar conditions. The total protein concentration was determined from the following equation: […]
PROTOCOL: 100 μL of homogenate and 900 μL of Ellman's reagent (annex 3d) were added into the assay tubes, homogenized and incubated at room temperature for 30 minutes before reading the optical densities at 412 nm against a blank which contained 900 μL the reagent solution and 100 μL of NaCl 0.9% incubated under similar conditions as the assay. […] Results were expressed as μmol/g of total proteins.

These results are taken from patent publication US11684646B2, “Methods and related compositions for reducing oxidative stress” (Gateway Health Alliances, Inc., priority 2019, dated 2023).

As for Vitamin E, the “IC50 for lipid peroxidation induced in the brain” value in data set [1] worked out at 574 µg/mL. Also, in data set [1] (1000 m/mL), the “percentage inhibition of lipid peroxidation in brain homogenates” value is 60.427%. The “effect on plasma creatinine after aluminum” value in data set [2] (HEEBT 150 and 300 mg/kg BW, vitamin E) is on record as “tend to normalize”. In data set [2] (plasma, AlCl3 32.5 mg/kg i.p., Vit E 100 mg/kg BW/day (VE100)), this substance yielded a Créatinine of 2.297 ± 0.181 mg/dL. Besides, the “effect on MDA level in rats compared with the positive control (PC)” value in data set [3] (HEEBT 150 and 300 mg/kg BW, vitamin E, p<0.05) was “significantly (p<0.05) reduced”. The substance also yielded an MDA in data set [3] (brain of rats, AlCl3 32.5 mg/kg i.p., Vit E 100 mg/kg BW/day oral, 3 days (VE100)) of 4.631 ± 0.652 µM. Besides, in data set [4], the Thiols proteins is recorded as 0.299 ± 0.071 μg/mg of proteins.
